# Measurements from US20230079819A1, “COMPOUNDS AND USES THEREOF” (Foghorn Therapeutics Inc., priority 2019, published 2023).
# Like-named read-outs stand apart in the source and are kept apart here.
# Key:
# BRM = target: T1, BRM (Homo sapiens, UniProt P51531); assay: ATPase catalytic activity of BRM, ADP-Glo in vitro biochemical assay; details: 30 nM BRM, 400 μM ATP
# T1 construct: made in house; host or cells: High Five insect cells
# BRG-1 = target: T2, BRG-1 (Homo sapiens, UniProt P51532); assay: ATPase catalytic activity of BRG-1, ADP-Glo in vitro biochemical assay; details: 30 nM BRG-1, 400 μM ATP
# T2 construct: made in house; host or cells: High Five insect cells
# T2 sequence (P51532 whole entry): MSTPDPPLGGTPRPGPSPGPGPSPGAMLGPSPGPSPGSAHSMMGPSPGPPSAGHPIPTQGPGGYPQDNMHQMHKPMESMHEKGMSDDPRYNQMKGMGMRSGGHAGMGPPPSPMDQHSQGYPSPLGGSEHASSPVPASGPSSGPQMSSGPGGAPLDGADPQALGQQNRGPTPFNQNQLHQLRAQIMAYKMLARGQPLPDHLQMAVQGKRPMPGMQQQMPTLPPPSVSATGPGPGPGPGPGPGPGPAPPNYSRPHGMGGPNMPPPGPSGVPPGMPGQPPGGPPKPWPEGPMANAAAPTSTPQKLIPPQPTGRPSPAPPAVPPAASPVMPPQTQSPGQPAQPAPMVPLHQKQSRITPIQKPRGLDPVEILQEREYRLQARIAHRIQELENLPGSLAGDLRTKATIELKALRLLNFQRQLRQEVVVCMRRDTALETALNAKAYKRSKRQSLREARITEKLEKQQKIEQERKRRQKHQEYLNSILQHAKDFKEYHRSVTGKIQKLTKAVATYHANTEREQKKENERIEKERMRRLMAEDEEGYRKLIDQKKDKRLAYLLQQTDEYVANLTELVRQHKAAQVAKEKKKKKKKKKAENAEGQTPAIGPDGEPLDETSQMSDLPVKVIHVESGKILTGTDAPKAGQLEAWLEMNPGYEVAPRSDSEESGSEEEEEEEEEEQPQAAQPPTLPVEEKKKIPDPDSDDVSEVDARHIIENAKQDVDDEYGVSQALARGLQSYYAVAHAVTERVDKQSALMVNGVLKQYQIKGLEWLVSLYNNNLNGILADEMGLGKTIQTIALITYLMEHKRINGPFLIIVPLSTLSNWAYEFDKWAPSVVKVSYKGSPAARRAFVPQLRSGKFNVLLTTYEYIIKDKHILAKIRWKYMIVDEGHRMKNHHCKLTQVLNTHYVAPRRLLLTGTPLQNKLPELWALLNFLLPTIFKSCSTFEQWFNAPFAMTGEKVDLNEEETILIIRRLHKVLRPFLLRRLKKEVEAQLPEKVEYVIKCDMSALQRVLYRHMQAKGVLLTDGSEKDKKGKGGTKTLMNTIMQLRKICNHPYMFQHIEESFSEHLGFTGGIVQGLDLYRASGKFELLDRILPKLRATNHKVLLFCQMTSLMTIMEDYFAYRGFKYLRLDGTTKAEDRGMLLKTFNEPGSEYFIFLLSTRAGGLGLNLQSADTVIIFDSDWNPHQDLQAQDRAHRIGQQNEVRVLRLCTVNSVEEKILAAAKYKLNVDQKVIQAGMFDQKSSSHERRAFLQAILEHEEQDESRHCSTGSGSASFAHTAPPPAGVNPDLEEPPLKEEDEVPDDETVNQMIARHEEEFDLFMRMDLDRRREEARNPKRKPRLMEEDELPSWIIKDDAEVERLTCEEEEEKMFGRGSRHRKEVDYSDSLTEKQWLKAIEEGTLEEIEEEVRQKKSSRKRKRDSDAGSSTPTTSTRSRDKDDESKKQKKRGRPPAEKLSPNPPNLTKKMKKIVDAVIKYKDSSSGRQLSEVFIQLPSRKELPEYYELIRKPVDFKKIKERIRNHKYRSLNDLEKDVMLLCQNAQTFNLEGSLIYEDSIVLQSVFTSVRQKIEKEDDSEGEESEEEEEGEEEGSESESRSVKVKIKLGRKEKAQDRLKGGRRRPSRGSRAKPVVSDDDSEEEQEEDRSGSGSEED
# [1] = ATPase catalytic activity, read-out: BRM IP50
# [2] = ATPase catalytic activity, read-out: BRG1 IP50
# [3] = ATPase catalytic activity, read-out: BRM IP50 (μM)*
# [4] = ATPase catalytic activity, read-out: BRG1 IP50 (μM)*
# T1 sequence (P51531 whole entry): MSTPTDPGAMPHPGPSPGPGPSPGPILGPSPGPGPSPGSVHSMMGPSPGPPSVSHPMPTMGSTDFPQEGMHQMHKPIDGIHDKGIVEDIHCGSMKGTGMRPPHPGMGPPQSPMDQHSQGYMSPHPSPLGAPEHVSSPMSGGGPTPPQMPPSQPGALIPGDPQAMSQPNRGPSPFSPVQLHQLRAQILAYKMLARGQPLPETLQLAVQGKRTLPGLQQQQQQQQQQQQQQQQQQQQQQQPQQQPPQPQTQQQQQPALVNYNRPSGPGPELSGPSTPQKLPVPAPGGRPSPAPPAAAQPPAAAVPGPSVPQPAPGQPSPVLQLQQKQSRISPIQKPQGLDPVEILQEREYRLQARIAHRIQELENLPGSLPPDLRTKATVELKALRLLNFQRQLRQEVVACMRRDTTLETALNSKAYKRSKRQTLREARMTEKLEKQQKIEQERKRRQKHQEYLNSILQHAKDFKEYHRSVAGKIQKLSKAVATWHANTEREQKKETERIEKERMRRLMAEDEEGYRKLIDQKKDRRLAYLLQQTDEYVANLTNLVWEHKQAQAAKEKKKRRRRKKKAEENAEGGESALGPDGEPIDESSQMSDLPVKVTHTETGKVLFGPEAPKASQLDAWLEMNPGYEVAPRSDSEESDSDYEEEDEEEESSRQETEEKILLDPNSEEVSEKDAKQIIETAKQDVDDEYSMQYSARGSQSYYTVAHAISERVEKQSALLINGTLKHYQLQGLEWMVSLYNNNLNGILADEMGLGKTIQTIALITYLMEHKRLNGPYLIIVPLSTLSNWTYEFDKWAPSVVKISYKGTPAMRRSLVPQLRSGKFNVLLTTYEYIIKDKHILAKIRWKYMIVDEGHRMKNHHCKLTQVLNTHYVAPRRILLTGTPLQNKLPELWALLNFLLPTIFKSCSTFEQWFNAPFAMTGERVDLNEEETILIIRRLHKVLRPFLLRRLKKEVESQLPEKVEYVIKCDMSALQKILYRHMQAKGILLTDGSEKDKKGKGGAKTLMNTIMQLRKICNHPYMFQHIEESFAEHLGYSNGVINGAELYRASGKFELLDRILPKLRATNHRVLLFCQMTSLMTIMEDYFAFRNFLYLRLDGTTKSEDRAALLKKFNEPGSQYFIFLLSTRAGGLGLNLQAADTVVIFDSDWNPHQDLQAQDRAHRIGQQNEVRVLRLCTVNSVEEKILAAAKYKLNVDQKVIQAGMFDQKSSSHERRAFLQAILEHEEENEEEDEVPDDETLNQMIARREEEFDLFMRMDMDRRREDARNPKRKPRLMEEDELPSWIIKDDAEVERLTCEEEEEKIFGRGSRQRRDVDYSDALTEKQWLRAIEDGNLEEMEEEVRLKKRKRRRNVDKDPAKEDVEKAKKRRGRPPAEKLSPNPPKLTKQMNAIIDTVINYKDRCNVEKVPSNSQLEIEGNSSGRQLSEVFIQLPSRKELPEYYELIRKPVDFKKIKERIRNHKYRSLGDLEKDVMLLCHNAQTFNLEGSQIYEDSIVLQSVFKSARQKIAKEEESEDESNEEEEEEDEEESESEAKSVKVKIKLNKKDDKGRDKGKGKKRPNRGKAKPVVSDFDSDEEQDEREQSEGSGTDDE
SMILES,IC50 (BRM; [1]) [µM],IC50 (BRG-1; [2]) [µM],IC50 (BRM; [3]) [µM],IC50 (BRG-1; [4]) [µM],further results
Cn1cnc2ccc(-c3csc(NC(=O)CNC(=O)c4ccn(C(C)(C)C)c4)n3)cc2c1=O [Compound 494],> 0.01,> 0.01,,,
CS(=O)(=O)n1ccc(C(=O)NCC(=O)Nc2nc(-c3cccc(N4CCO[C@H](CO)C4)c3)cs2)c1 [Compound 450],> 0.01,> 0.01,,,
"CC(C)(C(=O)O)n1ccc(-c2cccc(-c3csc(NC(=O)CNC(=O)c4ccn(S(C)(=O)=O)c4)n3)c2)n1 [Compound 217, 2-methyl-2-[3-[3-[2-[[2-[(1-methylsulfonylpyrrole-3-carbonyl)amino]acetyl]amino]thiazol-4-yl]phenyl]pyrazol-1-yl]propanoic acid]",,,> 0.01,> 0.01,
CC(C)N1CCc2ccc(-c3csc(NC(=O)CNC(=O)c4ccn(S(C)(=O)=O)c4)n3)cc21 [Compound 469],> 0.1,> 0.1,,,
"Cn1c(=O)ccc2ccc(-c3csc(NC(=O)CNC(=O)c4ccn(S(C)(=O)=O)c4)n3)cc21 [Compound 12, N-(2-((4-(1-methyl-2-oxo-1,2-dihydroquinolin-7-yl)thiazol-2-yl)amino)-2-oxoethyl)-1-(methylsulfonyl)-1H-pyrrole-3-carboxamide]",,,> 0.01,> 0.01,
CS(=O)(=O)n1ccc(C(=O)NCC(=O)Nc2nc(-c3cccc(N4CCCOCC4)c3)cs2)c1 [Compound 210],,,> 0.01,> 0.01,
"CS(=O)(=O)n1ccc(C(=O)NCC(=O)Nc2nc(-c3cccc(CCc4ccncc4)c3)cs2)c1 [Compound 151, 1-(methylsulfonyl)-N-(2-oxo-2-((4-(3-(2-(pyridin-4-yl)ethyl)phenyl)thiazol-2-yl)amino)ethyl)-1H-pyrrole-3-carboxamide]",,,< 0.01,< 0.01,
CS(=O)(=O)n1ccc(C(=O)NCC(=O)Nc2nc(-c3cccc(-c4cnn(C(F)F)n4)c3)cs2)c1 [Compound 289],,,> 0.01,> 0.01,
COC[C@H](NC(=O)c1ccn(C(C)(C)C#N)c1)C(=O)Nc1nc(-c2ccc3ccn(C)c(=O)c3c2)cs1 [Compound 584],< 0.01,< 0.01,,,
CS(=O)(=O)n1ccc(C(=O)NCC(=O)Nc2nc(-c3cccc(N4CC[C@H](O)[C@H](F)C4)c3)cs2)c1 [Compound 191],,,< 0.01,> 0.01,
"C[C@H](NC(=O)c1ccn(S(C)(=O)=O)c1)C(=O)Nc1nc(-c2cccc(-c3ccncc3)c2)cs1 [Compound 68, N-[(1S)-1-methyl-2-oxo-2-[[4-[3-(4-pyridyl)phenyl]thiazol-2-yl]amino]ethyl]-1-methylsulfonyl-pyrrole-3-carboxamide]",,,< 0.01,< 0.01,
"CO[C@H]1CCCN(c2cccc(-c3csc(NC(=O)CNC(=O)c4ccn(C(C)(C)C)c4)n3)c2)C1 [Compound 98, (S)-1-(tert-butyl)-N-(2-((4-(3-(3-methoxypiperidin-1-yl)phenyl)thiazol-2-yl)amino)-2-oxoethyl)-1H-pyrrole-3-carboxamide]",,,> 0.01,> 0.01,
CN1CCN(c2cccc(-c3csc(NC(=O)CNC(=O)c4ccn(S(C)(=O)=O)c4)n3)c2)CC1=O [Compound 220],,,> 0.01,> 0.01,
COC[C@@H](NC(=O)c1ccn(S(C)(=O)=O)c1)C(=O)Nc1nc(-c2cc(F)c3c(c2)CCN3C)cs1 [Compound 759],> 0.01,> 0.01,,,
COC[C@H](NC(=O)c1ccn(C2(C#N)CC2)n1)C(=O)Nc1nc(-c2ccc3ccn(C)c(=O)c3c2)cs1 [Compound 812],,,,,IC50 (BRM; read-out: BRM IP50): > 0.1 µM; IC50 (BRG-1; read-out: BRG1 IP50): > 0.1 µM
"CC1(C#Cc2cccc(-c3csc(NC(=O)CNC(=O)c4ccn(S(C)(=O)=O)c4)n3)c2)COC1 [Compound 361, N-(2-((4-(3-((3-methyloxetan-3-yl)ethynyl)phenyl)thiazol-2-yl)amino)-2-oxoethyl)-1-(methylsulfonyl)-1H-pyrrole-3-carboxamide]",,,> 0.01,> 0.01,
CS(=O)(=O)n1ccc(C(=O)NCC(=O)Nc2nc(-c3cccc(C4=CCN(C5COC5)CC4)c3)cs2)c1 [Compound 389],> 0.01,> 0.01,,,
"CS(=O)(=O)n1ccc(C(=O)NCC(=O)Nc2cccc(-c3cccc(-c4ccncc4)c3)n2)c1 [Compound 156, 1-(methylsulfonyl)-N-(2-oxo-2-((6-(3-(pyridin-4-yl)phenyl)pyridin-2-yl)amino)ethyl)-1H-pyrrole-3-carboxamide]",,,> 0.01,> 0.01,
CN1CCOc2ccc(-c3csc(NC(=O)CNC(=O)c4ccn(C(C)(C)C#N)c4)n3)cc21 [Compound 590],> 0.01,> 0.01,,,
COC[C@H]1CCCN(c2cccc(-c3csc(NC(=O)CNC(=O)c4ccn(C(C)(C)C)c4)n3)n2)C1 [Compound 319],,,> 0.01,> 0.01,
CN1CCCc2ccc(-c3csc(NC(=O)CNC(=O)c4ccn(C(C)(C)C)c4)n3)cc21 [Compound 305],,,> 0.01,> 0.01,
CO[C@@]1(C)CCCN(c2cccc(-c3csc(NC(=O)CNC(=O)c4ccn(S(C)(=O)=O)c4)n3)c2)C1 [Compound 258],,,> 0.01,> 0.01,
CS(=O)(=O)n1ccc(C(=O)NCC(=O)Nc2nc(-c3cccc(C4CCOCC4)c3)cs2)c1 [Compound 399],> 0.01,> 0.01,,,
C[C@@H]1C[C@@H](COc2cccc(-c3csc(NC(=O)CNC(=O)c4ccn(S(C)(=O)=O)c4)n3)c2)C[C@H](C)O1 [Compound 291],,,> 0.01,> 0.01,
CS(=O)(=O)n1ccc(C(=O)NCC(=O)Nc2nc(-c3ccc(F)c(OC4CC4)n3)cs2)c1 [Compound 614],> 0.01,> 0.01,,,
COC[C@H](NC(=O)c1cn(C(C)(C)C#N)cn1)C(=O)Nc1nc(-c2cc(C)cc(N3C[C@@H](C)O[C@@H](C)C3)n2)cs1 [Compound 818],,,,,IC50 (BRM; read-out: BRM IP50): > 0.01 µM; IC50 (BRG-1; read-out: BRG1 IP50): > 0.01 µM

# Now from value to molecule, other results behind:
IC50 (BRM; [1]) [µM],IC50 (BRG-1; [2]) [µM],IC50 (BRM; [3]) [µM],IC50 (BRG-1; [4]) [µM],SMILES,further results
< 0.01,> 0.01,,,C[C@@H]1CN(c2cccc(-c3csc(NC(=O)CNC(=O)c4ccn([C@]5(C)CC5(F)F)c4)n3)n2)C[C@H](C)O1 [Compound 622],
> 0.01,> 0.01,,,CC(C)(C)n1ccc(C(=O)NCC(=O)Nc2nc(-c3cccc(N4CCC(C(F)F)C4)n3)cs2)c1 (centres unmarked) [Compound 618],
,,> 0.01,> 0.01,CS(=O)(=O)n1ccc(C(=O)NCC(=O)Nc2nc(-c3cccc(N4CC(n5cccn5)C4)c3)cs2)c1 [Compound 174],
,,> 0.1,> 0.1,"NCCn1ccc(C(=O)NCC(=O)Nc2nc(-c3cccc(-c4ccncc4)c3)cs2)c1 [Compound 38, 1-(2-aminoethyl)-N-(2-oxo-2-((4-(3-(pyridin-4-yl)phenyl)thiazol-2-yl)amino)ethyl)-1H-pyrrole-3-carboxamide]",
> 0.1,> 0.1,,,"CC(C)(C)n1ccc(C(=O)NCC(=O)Nc2nc(-c3cccc(N4CCC5(CC4)COC5)c3)cs2)c1 [Compound 397, N-(2-((4-(3-(2-oxa-7-azaspiro[3.5]nonan-7-yl)phenyl)thiazol-2-yl)amino)-2-oxoethyl)-1-(tert-butyl)-1H-pyrrole-3-carboxamide]",
< 0.01,> 0.01,,,Cc1cncc(-c2cccc(-c3csc(NC(=O)CNC(=O)c4ccn(C5(C)COC5)c4)n3)c2)n1 [Compound 529],
> 0.1,> 0.1,,,CC1CN(c2cccc(-c3csc(NC(=O)CNC(=O)c4ccn(C(C)(C)C)c4)n3)n2)C1 [Compound 625],
< 0.01,< 0.01,,,COC[C@H](NC(=O)c1ccn(C(C)(C)C)c1)C(=O)Nc1nc(-c2cc(C)c3ccn(C)c(=O)c3c2)cs1 [Compound 485],
> 0.01,> 0.01,,,CS(=O)(=O)n1ccc(C(=O)NCC(=O)Nc2nc(-c3cccc(N4CC[C@@H](C(F)F)C4)n3)cs2)c1 [Compound 683],
< 0.01,> 0.01,,,COC[C@H](NC(=O)c1ccn(S(C)(=O)=O)c1)C(=O)Nc1nc(-c2cccc(-c3ccnc(OC)c3)c2)cs1 [Compound 443],
> 0.1,> 0.1,,,N#CC1(n2ccc(C(=O)NCC(=O)Nc3nc(-c4cccc(OC5CC5)n4)cs3)c2)CC1 [Compound 559],
,,> 0.01,> 0.01,"CC(C)C[C@H](NC(=O)c1ccn(S(C)(=O)=O)c1)C(=O)Nc1nc(-c2cccc(-c3ccncc3)c2)cs1 [Compound 75, (S)—N-(4-methyl-1-oxo-1-((4-(3-(pyridin-4-yl)phenyl)thiazol-2-yl)amino)pentan-2-yl)-1-(methylsulfonyl)-1H-pyrrole-3-carboxamide]",
> 0.01,> 0.01,,,Cc1cc(-c2cccc(-c3csc(NC(=O)CNC(=O)c4ccn(C(C)(C)C)c4)n3)c2)no1 [Compound 425],
> 0.01,> 0.01,,,COC[C@H](NC(=O)c1ccn(S(C)(=O)=O)c1)C(=O)Nc1nc(-c2cccc([C@H]3CC3(F)F)c2)cs1 [Compound 599],
> 0.01,> 0.01,,,N#CC1(n2ccc(C(=O)NCC(=O)Nc3nc(-c4cccc(OC(F)(F)F)c4)cs3)c2)CC1 [Compound 553],
,,> 0.01,> 0.01,"CN(C)CCC(NC(=O)c1ccn(S(C)(=O)=O)c1)C(=O)Nc1nc(-c2cccc(-c3ccncc3)c2)cs1 (centres unmarked) [Compound 77, N-(4-(dimethylamino)-1-oxo-1-((4-(3-(pyridin-4-yl)phenyl)thiazol-2-yl)amino)butan-2-yl)-1-(methylsulfonyl)-1H-pyrrole-3-carboxamide]",
,,> 0.01,> 0.01,"CC(C)(C)n1ccc(C(=O)NCC(=O)Nc2nc(-c3cccc(COC4CCOCC4)c3)cs2)c1 [Compound 125, 1-(tert-butyl)-N-(2-oxo-2-((4-(3-(((tetrahydro-2H-pyran-4-yl)oxy)methyl)phenyl)thiazol-2-yl)amino)ethyl)-1H-pyrrole-3-carboxamide]",
